26 molecules from patent US8598202B2, “Aryl-hydroxyethylamino-pyrimidines and triazines as modulators of fatty acid amide hydrolase” (Janssen Pharmaceutica NV, priority 2008, dated 2013) can be followed below.

The target in one experiment is T1, Rat FAAH-1 (Rattus norvegicus, UniProt P97612).
T1 sequence (P97612 1-579): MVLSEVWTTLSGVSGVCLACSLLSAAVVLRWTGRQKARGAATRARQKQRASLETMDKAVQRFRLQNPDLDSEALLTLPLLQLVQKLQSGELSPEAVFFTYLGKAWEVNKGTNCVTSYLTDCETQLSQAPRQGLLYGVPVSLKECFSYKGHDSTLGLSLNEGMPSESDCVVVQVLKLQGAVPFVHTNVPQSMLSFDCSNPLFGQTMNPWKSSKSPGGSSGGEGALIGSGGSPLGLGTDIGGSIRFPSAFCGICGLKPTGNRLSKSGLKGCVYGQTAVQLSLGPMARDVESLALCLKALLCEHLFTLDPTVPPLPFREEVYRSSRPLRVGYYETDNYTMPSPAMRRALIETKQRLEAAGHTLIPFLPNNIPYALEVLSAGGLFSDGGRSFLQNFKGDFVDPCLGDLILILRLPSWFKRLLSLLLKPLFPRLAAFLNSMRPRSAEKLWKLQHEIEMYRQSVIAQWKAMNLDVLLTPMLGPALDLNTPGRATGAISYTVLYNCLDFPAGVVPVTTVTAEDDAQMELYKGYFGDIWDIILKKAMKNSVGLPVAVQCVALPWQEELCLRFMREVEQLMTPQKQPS
As to the kind of experiment: Assay Method 2: rat FAAH-1 assay, 3H-anandamide hydrolysis in homogenate of SK-N-MC cells transfected with rat FAAH.

Another experiment addresses T2, FAAH (Homo sapiens, UniProt O00519).
T2 sequence (O00519 1-579): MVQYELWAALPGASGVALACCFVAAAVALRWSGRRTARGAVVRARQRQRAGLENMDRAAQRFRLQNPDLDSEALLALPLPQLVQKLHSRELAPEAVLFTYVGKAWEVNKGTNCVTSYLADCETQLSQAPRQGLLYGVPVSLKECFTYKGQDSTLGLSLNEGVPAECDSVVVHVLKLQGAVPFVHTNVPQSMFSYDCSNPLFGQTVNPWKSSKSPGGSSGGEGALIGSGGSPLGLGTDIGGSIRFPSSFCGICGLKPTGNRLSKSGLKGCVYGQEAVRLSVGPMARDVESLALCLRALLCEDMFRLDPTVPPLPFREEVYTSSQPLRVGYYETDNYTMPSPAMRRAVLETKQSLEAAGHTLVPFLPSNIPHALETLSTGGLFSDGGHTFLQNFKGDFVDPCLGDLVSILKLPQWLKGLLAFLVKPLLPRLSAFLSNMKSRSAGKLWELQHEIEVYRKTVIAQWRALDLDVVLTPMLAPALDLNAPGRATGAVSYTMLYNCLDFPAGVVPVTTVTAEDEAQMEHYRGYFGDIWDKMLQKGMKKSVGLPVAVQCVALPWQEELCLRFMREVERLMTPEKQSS
Kind of experiment: Assay Method 1: FAAH assay, 3H-anandamide hydrolysis in homogenate of T84 cells or SK-N-MC cells transfected with human FAAH.

The structures appear in SMILES notation. Counter-ions that a name gives are not always drawn. A value given as a limit tells only on which side of the number the result lay.

For the molecule `O[C@@H](CNc1cc(-c2ccc(C(F)(F)F)c(Cl)c2)nc(C(F)(F)F)n1)c1ccccc1` [Example 93, (1R)-2-({6-[3-Chloro-4-(trifluoromethyl)phenyl]-2-(trifluoromethyl)pyrimidin-4-yl}amino)-1-phenylethanol trifluoroacetic acid salt], the results for the IC50 on Rat FAAH-1 and at FAAH were 152 nM and 183 nM, respectively.
With `O[C@@H](CNc1cc(-c2ccc(Cl)c(Cl)c2)ncn1)c1ccccc1` [Example 95, (1R)-2-{[6-(3,4-Dichlorophenyl)-pyrimidin-4-yl]amino}-1-phenylethanol], the IC50 (commonly the concentration needed to halve the response being measured) against Rat FAAH-1 is 66 nM; against FAAH it was 18 nM.
`O[C@@H](CNc1cc(-c2ccc3sccc3c2)ncn1)c1ccccc1` [Example 100, (1R)-2-{[6-(1-Benzothiophen-5-yl)pyrimidin-4-yl]amino}-1-phenylethanol trifluoroacetic acid salt]: the IC50 at Rat FAAH-1 came out at 1400 nM; against FAAH it was 43 nM.
Taken in the same sequence, the figures for `CN(C)c1nc(NC[C@H](O)c2ccccc2)cc(-c2ccc(C(F)(F)F)c(Cl)c2)n1` [Example 101, (1R)-2-({6-[3-Chloro-4-(trifluoromethyl)phenyl]-2-(dimethylamino)pyrimidin-4-yl}amino)-1-phenylethanol trifluoroacetic acid salt] were 80 nM and 32 nM.
The matching figures for `CSc1nc(NC[C@H](O)c2ccccc2)cc(-c2ccc(C(F)(F)F)c(F)c2)n1` [Example 102, (1R)-2-({6-[3-Fluoro-4-(trifluoromethyl)phenyl]-2-(methylsulfanyl)pyrimidin-4-yl}amino)-1-phenylethanol trifluoroacetic acid salt]: 50 nM and 17 nM.
The matching figures for `O[C@@H](CNc1ncnc(-c2ccc(C(F)(F)F)cc2)n1)c1ccccc1` [Example 103, (1R)-1-Phenyl-2-({4-[4-(trifluoromethyl)phenyl]-1,3,5-triazin-2-yl}amino)ethanol trifluoroacetic acid salt]: 350 nM and 305 nM.
As for `O[C@@H](CNc1ncnc(-c2ccc(C(F)(F)F)c(Cl)c2)n1)c1ccccc1` [Example 104, (1R)-2-({4-[3-Chloro-4-(trifluoromethyl)phenyl]-1,3,5-triazin-2-yl}amino)-1-phenylethanol trifluoroacetic acid salt], the IC50 at Rat FAAH-1 is 58 nM; against FAAH, 130 nM.
As to `O[C@@H](CNc1cc(-c2cccc(C(F)(F)F)c2)ncn1)c1ccccc1` [Example 105, (1R)-1-Phenyl-2-({6-[3-(trifluoromethyl)phenyl]pyrimidin-4-yl}amino)ethanol], the IC50 at Rat FAAH-1 amounted to 1000 nM; against FAAH, 190 nM.
Taken in the same sequence, the figures for `O=[N+]([O-])c1ccc(C(O)CNc2cc(-c3ccc(OC(F)(F)F)cc3)ncn2)cc1` (stereo not shown) [Example 107, 1-(4-Nitrophenyl)-2-[(6-{4-[(trifluoromethyl)oxy]phenyl}pyrimidin-4-yl)amino]ethanol] were 320 nM and 240 nM.
In the case of `OC(CNc1cc(-c2ccc(OC(F)(F)F)cc2)ncn1)c1ccc(C(F)(F)F)cc1` (stereo not shown) [Example 108, 2-[(6-{4-[(Trifluoromethyl)oxy]phenyl}pyrimidin-4-yl)amino]-1-[4-(trifluoromethyl)phenyl]ethanol], the IC50 came out at 150 nM against Rat FAAH-1 and 110 nM at FAAH.
Turning to `OC(CNc1cc(-c2ccc(OC(F)(F)F)cc2)ncn1)c1ccc(Cl)cc1` (stereo not shown) [Example 109, 1-(4-Chlorophenyl)-2-[(6-{4-[(trifluoromethyl)oxy]phenyl}pyrimidin-4-yl)amino]ethanol], the IC50 at Rat FAAH-1 came out at 42 nM; on FAAH, 150 nM.
Taken in the same sequence, the figures for `COc1ccc(C(O)CNc2cc(-c3ccc(OC(F)(F)F)cc3)ncn2)cc1` (stereo not shown) [Example 111, 1-[4-(Methyloxy)phenyl]-2-[(6-{4-[(trifluoromethyl)oxy]phenyl}-pyrimidin-4-yl)amino]ethanol] were 220 nM and 122 nM.
With `COc1cc(C(O)CNc2cc(-c3ccc(OC(F)(F)F)cc3)ncn2)ccc1O` (stereo not shown) [Example 112, 4-{1-Hydroxy-2-[(6-{4-[(trifluoromethyl)oxy]phenyl}pyrimidin-4-yl)amino]ethyl}-2-(methyloxy)phenol], the figures for the IC50 on Rat FAAH-1 and at FAAH were 760 nM and 524 nM, respectively.
Regarding `OC(CNc1cc(-c2ccc(OC(F)(F)F)cc2)ncn1)c1ccc(F)cc1` (stereo not shown) [Example 113, 1-(4-Fluorophenyl)-2-[(6-{4-[(trifluoromethyl)oxy]phenyl}pyrimidin-4-yl)amino]ethanol], the IC50 was 41 nM on Rat FAAH-1 and 18 nM at FAAH.
The matching figures for `OC(CNc1cc(-c2ccc(OC(F)(F)F)cc2)ncn1)c1ccc(Cl)c(Cl)c1` (stereo not shown) [Example 114, 1-(3,4-Dichlorophenyl)-2-[(6-{4-[(trifluoromethyl)oxy]phenyl}-pyrimidin-4-yl)amino]ethanol]: 43 nM and 46 nM.
Regarding `OC(CNc1cc(-c2ccc(OC(F)(F)F)cc2)ncn1)c1ccccc1Cl` (stereo not shown) [Example 115, 1-(2-Chlorophenyl)-2-[(6-{4-[(trifluoromethyl)oxy]phenyl}pyrimidin-4-yl)amino]ethanol], the IC50 on Rat FAAH-1 turned out to be 205 nM; at FAAH, 140 nM.
As for `OC(CNc1cc(-c2ccc(OC(F)(F)F)cc2)ncn1)c1cccc(Cl)c1` (stereo not shown) [Example 116, 1-(3-Chlorophenyl)-2-[(6-{4-[(trifluoromethyl)oxy]phenyl}pyrimidin-4-yl)amino]ethanol], the values for the IC50 at Rat FAAH-1 and against FAAH were 110 nM and 90 nM, respectively.
The matching figures for `COc1cccc(C(O)CNc2cc(-c3ccc(OC(F)(F)F)cc3)ncn2)c1` (stereo not shown) [Example 117]: 22 nM and 32 nM.
The matching figures for `COc1ccccc1C(O)CNc1cc(-c2ccc(OC(F)(F)F)cc2)ncn1` (stereo not shown) [Example 118, 1-[2-(Methyloxy)phenyl]-2-[(6-{4-[(trifluoromethyl)oxy]phenyl}-pyrimidin-4-yl)amino]ethanol]: more than 10000 nM and 93 nM.
The matching figures for `C[C@H](Nc1cc(-c2ccc(OC(F)(F)F)cc2)ncn1)[C@H](O)c1ccccc1` [Example 119, (1R,2S)-1-Phenyl-2-[(6-{4-[(trifluoromethyl)oxy]phenyl}pyrimidin-4-yl)amino]propan-1-ol]: 55 nM and 17 nM.
`C[C@H]([C@H](O)c1ccccc1)N(C)c1cc(-c2ccc(OC(F)(F)F)cc2)ncn1` [Example 120, (1R,2R)-2-[Methyl(6-{4-[(trifluoromethyl)oxy]phenyl}pyrimidin-4-yl)amino]-1-phenylpropan-1-ol]: the IC50 at Rat FAAH-1 and against FAAH was more than 10000 nM each time.
For `C[C@@H]([C@H](O)c1ccccc1)N(C)c1cc(-c2ccc(OC(F)(F)F)cc2)ncn1` [Example 121, (1R,2S)-2-[Methyl(6-{4-[(trifluoromethyl)oxy]phenyl}pyrimidin-4-yl)amino]-1-phenylpropan-1-ol], the IC50 came to 3000 nM against Rat FAAH-1 and 580 nM at FAAH.
Consider `OC(CNc1cc(-c2ccc(OC(F)(F)F)cc2)ncn1)c1ccc2c(c1)OC(F)(F)O2` (stereo not shown) [Example 122, 1-(2,2-Difluoro-1,3-benzodioxol-5-yl)-2-[(6-{4-[(trifluoromethyl)oxy]phenyl}pyrimidin-4-yl)amino]ethanol], for which the figures for the IC50 against Rat FAAH-1 and on FAAH were 19 nM and 13 nM, respectively.
Taken in the same sequence, the figures for `OC(CNc1cc(-c2ccc(OC(F)(F)F)cc2)ncn1)c1cccnc1` (stereo not shown) [Example 124, 1-Pyridin-3-yl-2-[(6-{4-[(trifluoromethyl)oxy]phenyl}pyrimidin-4-yl)amino]ethanol] were 4000 nM and 800 nM.
The matching figures for `OC(CNc1cc(-c2ccc(OC(F)(F)F)cc2)ncn1)c1ccncc1` (stereo not shown) [Example 125, 1-Pyridin-4-yl-2-[(6-{4-[(trifluoromethyl)oxy]phenyl}pyrimidin-4-yl)amino]ethanol]: 5000 nM and 890 nM.
For the molecule `OC(CNc1cc(-c2ccc(OC(F)(F)F)cc2)ncn1)c1cc(Cl)cc(Cl)c1` (stereo not shown) [Example 126, 1-(3,5-Dichlorophenyl)-2-[(6-{4-[(trifluoromethyl)oxy]phenyl}-pyrimidin-4-yl)amino]ethanol], the IC50 came to 1000 nM at Rat FAAH-1 and 1200 nM at FAAH.
